≈ marks a conversion by molar mass, not a printed value.
Test system: LH1
Assay: ETEST antibiotic sensitivity of LH1
Type: cell-based
Conditions: 24 h, read-out: Susceptible to

Molecule | MIC [µg/mL]
CC[C@H]1OC(=O)[C@H](C)[C@@H](O[C@H]2C[C@@](C)(OC)[C@@H](O)[C@H](C)O2)[C@H](C)[C@@H](O[C@@H]2O[C@H](C)C[C@H](N(C)C)[C@H]2O)[C@](C)(OC)C[C@@H](C)C(=O)[C@H](C)[C@@H](O)[C@]1(C)O [Clarithromycin] | 0.16 (≈ 0.214 µM)

Same assay, conditions: ETEST, LH1, 24-hours anaerobic incubation

Molecule | Resistant to [µg/mL] | Susceptible to [µg/mL]
Trimethoprim/Sulfamethoxazole | 32 | –
O=C(O)c1cn(C2CC2)c2cc(N3CCNCC3)c(F)cc2c1=O [Ciprofloxacin), Ciprofloxacin] | 32 | –
CCN1CCN(C(=O)N[C@@H](C(=O)N[C@@H]2C(=O)N3[C@@H]2SC(C)(C)[C@@H]3C(=O)O)c2ccccc2)C(=O)C1=O [Piperacillan] | – | 0.19
Amoxicillin/Clavulanic Acid | – | 0.125
C[C@H]1COc2c(N3CCN(C)CC3)c(F)cc3c(=O)c(C(=O)O)cn1c23 [Levofloxacin] | 12 | –
NC[C@H]1O[C@H](O[C@H]2[C@H](O)[C@@H](O[C@H]3O[C@H](CO)[C@@H](O)[C@H](N)[C@H]3O)[C@H](N)C[C@@H]2N)[C@H](N)C[C@@H]1O [Tobramycin] | >512 | –
NCC[C@H](O)C(=O)N[C@@H]1C[C@H](N)[C@@H](O[C@H]2O[C@H](CN)[C@@H](O)[C@H](O)[C@H]2O)[C@H](O)[C@H]1O[C@H]1O[C@H](CO)[C@@H](O)[C@H](N)[C@H]1O [Amikacin] | 48 | –

Same assay, conditions: ETEST, LH1, 24-hours anaerobic incubation; read-out: Susceptible to

Molecule | MIC [µg/mL]
CO[C@H]1/C=C/O[C@@]2(C)Oc3c(C)c(O)c4c(O)c(c(/C=N/N5CCN(C)CC5)c(O)c4c3C2=O)NC(=O)/C(C)=C\C=C\[C@H](C)[C@H](O)[C@@H](C)[C@@H](O)[C@@H](C)[C@H](OC(C)=O)[C@@H]1C [Rifampicin] | 0.125 (≈ 0.152 µM)
CC(=O)NC[C@H]1CN(c2ccc(N3CCOCC3)c(F)c2)C(=O)O1 [Linezolid] | 0.5 (≈ 1.48 µM)
CN[C@H](CC(C)C)C(=O)N[C@H]1C(=O)N[C@@H](CC(N)=O)C(=O)N[C@H]2C(=O)N[C@H]3C(=O)N[C@H](C(=O)N[C@H](C(=O)O)c4cc(O)cc(O)c4-c4cc3ccc4O)[C@H](O)c3ccc(c(Cl)c3)Oc3cc2cc(c3O[C@@H]2O[C@H](CO)[C@@H](O)[C@H](O)[C@H]2O[C@H]2C[C@](C)(N)[C@H](O)[C@H](C)O2)Oc2ccc(cc2Cl)[C@H]1O [Vancomycin] | 1.5 (≈ 1.04 µM)
C[C@H]1[C@H](NC(=O)/C(=N\OC(C)(C)C(=O)O)c2csc(N)n2)C(=O)N1S(=O)(=O)O [Aztreonam] | 2 (≈ 4.59 µM)
CN(C)[C@@H]1C(O)=C(C(N)=O)C(=O)[C@@]2(O)C(O)=C3C(=O)c4c(O)cccc4[C@@](C)(O)[C@H]3C[C@@H]12 [Tetracycline] | 0.5 (≈ 1.13 µM)
CC[C@H]1OC(=O)[C@H](C)[C@@H](O[C@H]2C[C@@](C)(OC)[C@@H](O)[C@H](C)O2)[C@H](C)[C@@H](O[C@@H]2O[C@H](C)C[C@H](N(C)C)[C@H]2O)[C@](C)(O)C[C@@H](C)C(=O)[C@H](C)[C@@H](O)[C@]1(C)O [Erythromycin] | 0.023 (≈ 0.0313 µM)
C[C@@H](O)[C@H]1C(=O)N2C(C(=O)O)=C(SCCN=CN)C[C@H]12 [Imipenem] | 0.094 (≈ 0.314 µM)

Reference: patent publication US20210353693A1, “Live Biotherapeutics to Treat and Prevent Lung Conditions” (priority 2018, published 2021)
